Read-outs that look alike come from different tables or passages of the source.
Key:
[1] = Analyte stability in brain homogenate; assay type: physicochemical, human; conditions: for Freeze-thaw stability, Accuracy / Freeze-thaw stability, Mean concentration / Freeze-thaw stability, Difference: 3 cycles; for Freeze-thaw stability, Difference / Benchtop stability, Difference / Processed sample stability, Difference / Autosampler stability (5 °C), Difference / Long-term stability (−20 °C), Difference: vs freshly processed QC; for Benchtop stability, Accuracy / Benchtop stability, Mean concentration / Benchtop stability, Difference: 6 h; for Processed sample stability, Accuracy / Processed sample stability, Mean concentration / Processed sample stability, Difference: 22 h; for Autosampler stability (5 °C), Accuracy / Autosampler stability (5 °C), Mean concentration / Autosampler stability (5 °C), Difference: 96 h; for Long-term stability (−20 °C), Accuracy / Long-term stability (−20 °C), Mean concentration / Long-term stability (−20 °C), Difference: 39 days
Description: (§1) The stability of the analytes was studied under various storage and processing conditions. […] Short- and long-term stability studies of all analytes were conducted in human blank plasma and brain homogenate under several storage conditions. Analyte stability in biological matrices was analyzed using freshly prepared calibration standards and QC samples. The percentage difference between the stability and freshly processed QC was also assessed. Re-injection reproducibility was evaluated within the sample stability period in the autosampler. Analytes were considered stable if the accuracy at each level was ±15.0% of the nominal value. Additionally, the difference from corresponding comparison QC samples must be within ±15.0%.

[2] = Analyte stability in human plasma; assay type: physicochemical; conditions: for Freeze-thaw stability, Accuracy / Freeze-thaw stability, Mean concentration / Freeze-thaw stability, Difference: 3 cycles; for Freeze-thaw stability, Difference / Benchtop stability, Difference / Processed sample stability, Difference / Autosampler stability (5 °C), Difference / Long-term stability (−20 °C), Difference: vs freshly processed QC; for Benchtop stability, Accuracy / Benchtop stability, Mean concentration / Benchtop stability, Difference: 19 h; for Processed sample stability, Accuracy / Processed sample stability, Mean concentration / Processed sample stability, Difference: 23 h; for Autosampler stability (5 °C), Accuracy / Autosampler stability (5 °C), Mean concentration / Autosampler stability (5 °C), Difference: 112 h; for Long-term stability (−20 °C), Accuracy / Long-term stability (−20 °C), Mean concentration / Long-term stability (−20 °C), Difference: 27 days
Description: as §1

[3] = Levels in intraoperatively collected CSF of GBM patients; assay type: in vivo; conditions: human, po, five GBM patients, oral LY3214996 200 mg once daily and abemaciclib 150 mg twice daily for 5 days, intraoperative CSF
Description: Blank brain and clinical brain tumor tissue homogenates were prepared at 1:9 (m/V) ratio with PBS. The samples were homogenized at a speed of 6.00 m/s for 40 s for three cycles using a Bead Ruptor Elite homogenizer (Omni International, Kennesaw, GA, USA). Plasma was used as a surrogate matrix when preparing calibration curves for brain and brain tumor homogenates and CSF as well as for the PBS fraction after sample dialysis. To minimize matrix differences, all plasma samples were spiked with PBS, while all non-plasma samples were spiked with plasma. Extraction of the analyte and IS was facilitated by protein precipitation using methanol-containing IS precipitation solution. Samples (70 μL) spiked with PBS or plasma were precipitated using 400 μL of IS precipitation solution. After centrifugation at 12,000 r/min for 10 min at 4 °C, the supernatant was transferred for LC-MS/MS analysis.
(§2) The validated bioanalytical method was employed to investigate analytes pharmacokinetics in the plasma, brain tumor, and CSF in GBM patients (ClinicalTrials.gov identifier: NCT04391595). The protocol was reviewed and approved by the Institutional Review Board of the Barrow Neurological Institute, St. Joseph's Hospital and Medical Center (Phoenix, AZ, USA). All patients enrolled in the trial provided written informed consent. […] Blood, CSF, and GBM tissue (including gadolinium-contrast enhancing and non-enhancing regions) samples were obtained intra-operatively from each patient on the […] on the planned operation day. Blood was centrifuged at 4 °C and 3,000 r/min for 10 min; plasma was subsequently collected. Brain tumors were resected 7–9 h after the last dose was administered. Once resected, the tissue samples were rinsed with PBS, paper dried, and freshly frozen in liquid nitrogen. The samples were then stored at −80 °C in a freezer for later analysis.

[4] = Equilibrium dialysis, fraction unbound in patient brain tumor tissue; assay type: in vitro ADME; conditions: human, five patients, 16 h equilibrium dialysis
Description: (§3) Equilibrium dialysis was employed to measure the fraction unbound of analytes in plasma, brain, and brain tumor tissue homogenates using 96-well DispoEquilibrium Dialyzer plates with a 10 kDa cut-off regenerated cellulose membrane. Dialysis was performed using 180 μL of human plasma or tissue homogenate against an equal volume of PBS (pH 7.4) in a dual-plate rotator (Harvard Apparatus, Holliston, MA, USA). Equilibrium time was initially optimized by analyzing samples after 2, 4, 6, 8, 16, and 24 h of dialysis at concentrations of 20 and 200 nM in human plasma and brain homogenate. The dialysates were collected and processed as described in Sections 2.3.2 and 2.3.3. The recovery of analytes was calculated as the ratio of analyte concentration after dialysis (sum of concentrations found in PBS and matrix fractions) to the total concentration to ensure the reliability and reproducibility of the assay. The experiments were repeated at least three times, and each sample in triplicate and average fraction unbound values were determined.
(§4) The fraction unbound in plasma (fu, plasma) and tissue homogenate (fu, hom) was evaluated as the analyte concentration ratio of post-dialysis PBS (cu) to post-dialysis plasma (cp, Eq. (1)) or homogenate (chom, Eq. (2)).(1) fu,plasma =cu/cp (2) fu,hom =cu/chom
The fraction unbound in the actual tissue (fu, tissue) was obtained by incorporating the unbound fraction in the tissue homogenate (fu, hom) and the dilution factor (Df) into Eq. (3).(3) fu,tissue = fu,hom/[Df - (Df - 1)fu,hom]
(§5) Unbound drug levels in the actual plasma and brain tumor tissue were measured using dialysis for 16 h to reach equilibrium. The mean of fraction unbound values determined in five patient samples was calculated.
as §2

[5] = Equilibrium dialysis, fraction unbound in plasma; assay type: in vitro ADME, human; conditions: pH 7.4, 16 h equilibrium dialysis
Description: as §3, §4, §5

Cc1nc2c(F)cc(-c3nc(Nc4ccc(CN5CCNCC5)cn4)ncc3F)cc2n1C(C)C [M2]
Freeze-thaw stability, Accuracy ([1]; HQC 400.0 nM): 101.3% | Freeze-thaw stability, Mean concentration ([1]; HQC 400.0 nM): 405.1 nM | Freeze-thaw stability, Difference ([1]; HQC 400.0 nM): −6.8% | Freeze-thaw stability, Accuracy ([1]; LQC 0.6 nM): 98.3% | Freeze-thaw stability, Mean concentration ([1]; LQC 0.6 nM): 0.590 nM | Freeze-thaw stability, Difference ([1]; LQC 0.6 nM): −9.4% | Benchtop stability, Accuracy ([1]; HQC 400.0 nM): 97.0% | Benchtop stability, Mean concentration ([1]; HQC 400.0 nM): 388.2 nM | Benchtop stability, Difference ([1]; HQC 400.0 nM): −5.9% | Benchtop stability, Accuracy ([1]; LQC 0.6 nM): 102.4% | Benchtop stability, Mean concentration ([1]; LQC 0.6 nM): 0.614 nM | Benchtop stability, Difference ([1]; LQC 0.6 nM): 6.9% | Processed sample stability, Accuracy ([1]; HQC 400.0 nM): 100.2% | Processed sample stability, Mean concentration ([1]; HQC 400.0 nM): 400.9 nM | Processed sample stability, Difference ([1]; HQC 400.0 nM): −2.8% | Processed sample stability, Accuracy ([1]; LQC 0.6 nM): 105.4% | Processed sample stability, Mean concentration ([1]; LQC 0.6 nM): 0.632 nM | Processed sample stability, Difference ([1]; LQC 0.6 nM): 10.0% | Autosampler stability (5 °C), Accuracy ([1]; HQC 400.0 nM): 105.4% | Autosampler stability (5 °C), Mean concentration ([1]; HQC 400.0 nM): 421.6 nM | Autosampler stability (5 °C), Difference ([1]; HQC 400.0 nM): 6.2% | Autosampler stability (5 °C), Accuracy ([1]; LQC 0.6 nM): 102.4% | Autosampler stability (5 °C), Mean concentration ([1]; LQC 0.6 nM): 0.615 nM | Autosampler stability (5 °C), Difference ([1]; LQC 0.6 nM): 13.5% | Long-term stability (−20 °C), Accuracy ([1]; HQC 400.0 nM): 103.4% | Long-term stability (−20 °C), Mean concentration ([1]; HQC 400.0 nM): 413.6 nM | Long-term stability (−20 °C), Difference ([1]; HQC 400.0 nM): −4.8% | Long-term stability (−20 °C), Accuracy ([1]; LQC 0.6 nM): 98.3% | Long-term stability (−20 °C), Mean concentration ([1]; LQC 0.6 nM): 0.590 nM | Long-term stability (−20 °C), Difference ([1]; LQC 0.6 nM): −9.5% | Freeze-thaw stability, Accuracy ([2]; HQC 400.0 nM): 106% | Freeze-thaw stability, Mean concentration ([2]; HQC 400.0 nM): 424.2 nM | Freeze-thaw stability, Difference ([2]; HQC 400.0 nM): 5.8% | Freeze-thaw stability, Accuracy ([2]; LQC 0.6 nM): 105.3% | Freeze-thaw stability, Mean concentration ([2]; LQC 0.6 nM): 0.632 nM | Freeze-thaw stability, Difference ([2]; LQC 0.6 nM): 5.8% | Benchtop stability, Accuracy ([2]; HQC 400.0 nM): 103.8% | Benchtop stability, Mean concentration ([2]; HQC 400.0 nM): 415.0 nM | Benchtop stability, Difference ([2]; HQC 400.0 nM): 1.1% | Benchtop stability, Accuracy ([2]; LQC 0.6 nM): 92.2% | Benchtop stability, Mean concentration ([2]; LQC 0.6 nM): 0.553 nM | Benchtop stability, Difference ([2]; LQC 0.6 nM): −1.7% | Processed sample stability, Accuracy ([2]; HQC 400.0 nM): 100.6% | Processed sample stability, Mean concentration ([2]; HQC 400.0 nM): 402.2 nM | Processed sample stability, Difference ([2]; HQC 400.0 nM): 0.7% | Processed sample stability, Accuracy ([2]; LQC 0.6 nM): 95.5% | Processed sample stability, Mean concentration ([2]; LQC 0.6 nM): 0.573 nM | Processed sample stability, Difference ([2]; LQC 0.6 nM): 3.6% | Autosampler stability (5 °C), Accuracy ([2]; HQC 400.0 nM): 97.7% | Autosampler stability (5 °C), Mean concentration ([2]; HQC 400.0 nM): 390.9 nM | Autosampler stability (5 °C), Difference ([2]; HQC 400.0 nM): −0.2% | Autosampler stability (5 °C), Accuracy ([2]; LQC 0.6 nM): 96.8% | Autosampler stability (5 °C), Mean concentration ([2]; LQC 0.6 nM): 0.581 nM | Autosampler stability (5 °C), Difference ([2]; LQC 0.6 nM): 4.8% | Long-term stability (−20 °C), Accuracy ([2]; HQC 400.0 nM): 109.2% | Long-term stability (−20 °C), Mean concentration ([2]; HQC 400.0 nM): 437.0 nM | Long-term stability (−20 °C), Difference ([2]; HQC 400.0 nM): 5.6% | Long-term stability (−20 °C), Accuracy ([2]; LQC 0.6 nM): 99.9% | Long-term stability (−20 °C), Mean concentration ([2]; LQC 0.6 nM): 0.6 nM | Long-term stability (−20 °C), Difference ([2]; LQC 0.6 nM): −3.1% | concentration at 6 day (intra-operative) ([3]; read-out: Level in CSF (range)): 1.8 to 30.4 nM | concentration at 6 day (intra-operative) ([3]; read-out: Median level in CSF): 11.7 nM | fraction unbound at 16 h ([4]; pH 7.4, gadolinium contrast enhancing GBM region, read-out: Fraction unbound (fu), GBM (E)): 0.009 | fraction unbound at 16 h ([4]; pH 7.4, gadolinium contrast non-enhancing GBM region, read-out: Fraction unbound (fu), GBM (NE)): 0.006 | fraction unbound at 16 h ([5]; human, plasma of five GBM patients, read-out: Fraction unbound (fu), Plasma (patients)): 0.045 | fraction unbound at 16 h ([5]; pooled human plasma spiked at 20 and 200 nM, read-out: Fraction unbound (fu), Plasma (pooled)): 0.052
